Measured values taken from ChEMBL document CHEMBL1126088, “Conformational analysis of dopamine D-2 receptor antagonists of the benzamide series in relation to a recently proposed D-2 receptor-interaction model” (J Med Chem, 1992).

Assay: Effective dose of the compound
Format: functional

Compound | ED50
COc1cc(N)c(Cl)cc1C(=O)NC1CCN(Cc2ccccc2)CC1 [CLEBOPRIDE] | 0.037 mg/kg
CCN(CC)CCNC(=O)c1cc(Cl)c(N)cc1OC [METOCLOPRAMIDE] | 0.75 mg/kg
COc1cc(N)c(Cl)cc1C(=O)NC1CCN2CC(c3ccccc3)CC2C1 (stereo not drawn) | 0.024 mg/kg
